For this test, the target named is human F508del-CFTR (Homo sapiens, UniProt P13569, DEL508-508). Put plainly: F508del-CFTR cell surface expression (corrector activity), DiscoveRx ß-galactosidase complementation chemiluminescence assay in recombinant U2OS cell line.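 As to all read-outs here: U2OS cells co-expressing ProLink-tagged F508del-CFTR and a membrane-anchored enzyme acceptor, where more surface CFTR restores β-galactosidase activity measured by chemiluminescence.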 The conditions noted are these: for EC50: EC50, F508del-CFTR cell surface expression; for Emax: U2OS.
Chain of human F508del-CFTR (P13569 with tags, fused parts or gaps DEL508-508): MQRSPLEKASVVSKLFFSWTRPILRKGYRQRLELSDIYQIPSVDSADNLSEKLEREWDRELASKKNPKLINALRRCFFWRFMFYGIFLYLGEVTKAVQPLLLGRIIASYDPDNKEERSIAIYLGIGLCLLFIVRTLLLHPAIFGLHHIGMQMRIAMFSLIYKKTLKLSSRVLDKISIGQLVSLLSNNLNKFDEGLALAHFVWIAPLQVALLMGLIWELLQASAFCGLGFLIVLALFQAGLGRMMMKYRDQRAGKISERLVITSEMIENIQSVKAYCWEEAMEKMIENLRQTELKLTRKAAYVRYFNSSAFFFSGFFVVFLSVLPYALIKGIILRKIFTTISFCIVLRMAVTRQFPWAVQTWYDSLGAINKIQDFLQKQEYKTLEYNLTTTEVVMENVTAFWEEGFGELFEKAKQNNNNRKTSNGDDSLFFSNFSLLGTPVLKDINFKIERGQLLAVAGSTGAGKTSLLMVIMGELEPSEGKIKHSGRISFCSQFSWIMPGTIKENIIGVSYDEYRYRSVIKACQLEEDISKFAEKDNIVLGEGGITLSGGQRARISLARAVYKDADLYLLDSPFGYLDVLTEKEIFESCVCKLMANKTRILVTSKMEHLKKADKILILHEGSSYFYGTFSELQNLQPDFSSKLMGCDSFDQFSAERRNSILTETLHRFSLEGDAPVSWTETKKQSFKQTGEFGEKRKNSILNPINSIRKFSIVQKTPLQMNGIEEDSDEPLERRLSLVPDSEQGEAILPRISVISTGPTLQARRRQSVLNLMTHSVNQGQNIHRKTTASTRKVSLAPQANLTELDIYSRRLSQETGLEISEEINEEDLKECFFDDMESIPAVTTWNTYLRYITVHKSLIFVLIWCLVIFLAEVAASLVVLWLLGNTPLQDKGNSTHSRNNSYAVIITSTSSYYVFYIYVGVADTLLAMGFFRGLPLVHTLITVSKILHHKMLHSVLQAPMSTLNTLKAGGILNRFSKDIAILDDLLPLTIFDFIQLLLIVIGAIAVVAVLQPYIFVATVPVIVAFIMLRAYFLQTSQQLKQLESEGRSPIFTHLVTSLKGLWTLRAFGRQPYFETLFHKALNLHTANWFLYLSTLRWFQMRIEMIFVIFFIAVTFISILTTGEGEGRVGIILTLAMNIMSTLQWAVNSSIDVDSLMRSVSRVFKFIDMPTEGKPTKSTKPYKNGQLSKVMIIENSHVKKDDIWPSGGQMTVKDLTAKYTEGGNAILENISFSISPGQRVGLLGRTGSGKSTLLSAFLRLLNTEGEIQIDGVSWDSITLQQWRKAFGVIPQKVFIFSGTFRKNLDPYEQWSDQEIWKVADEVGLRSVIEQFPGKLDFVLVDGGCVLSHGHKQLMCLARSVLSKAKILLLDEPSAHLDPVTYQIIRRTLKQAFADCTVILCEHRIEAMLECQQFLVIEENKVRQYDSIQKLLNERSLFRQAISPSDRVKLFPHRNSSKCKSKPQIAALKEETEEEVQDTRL
Where [1] appears, read: U2OS cells, 16h compound incubation, geomean values.
The mark [2] stands for this setting: in relation to Emax of corrector lumacaftor (=100%), arithmetic mean values.

Experimental findings from US20240208992A1, “MACROCYCLES AS CFTR MODULATORS” (Idorsia Pharmaceuticals Ltd, priority 2021, published 2024) are described below.

Structures are written as SMILES.

For the molecule `COc1cccc(CCNC(=O)[C@@H]2CC(=O)N(C)[C@@H](CC3CCCCC3)C(=O)N(CCC3CCCCC3)CC(=O)N[C@H](Cc3ccccc3)COc3ccc4ccccc4c3C(=O)N2)c1` (mixture of isomers) [Example 301, (3RS,7S,13R)-13-benzyl-9-(2-cyclohexylethyl)-7-(cyclohexylmethyl)-N-(3-methoxyphenethyl)-6-methyl-1,5,8,11-tetraoxo-1,2,3,4,5,6,7,8,9,10,11,12,13,14-tetradecahydronaphtho[1,2-p][1]oxa[4,7,10,14]tetraazacycloheptadecine-3-carboxamide], where the note is “U2OS cell line, 16h compound incubation, geomean values”, the EC50 worked out at 112 nM. Consider `COc1cc2c(cn1)OC[C@@H](Cc1ccccc1)NC(=O)[C@@H]1CCCCN1C(=O)[C@H](CC(C)C)N(C)C(=O)C[C@@H](C(=O)NCCc1noc(C3CC3)n1)NC2=O` (mixture of isomers) [Example 516, (7S,11S,17aRS,20R)-20-benzyl-N-(2-(5-cyclopropyl-1,2,4-oxadiazol-3-yl)ethyl)-11-isobutyl-3-methoxy-10-methyl-5,9,12,18-tetraoxo-5,6,7,8,9,10,11,12,15,16,17,17a,18,19,20,21-hexadecahydro-14H-dipyrido[2,1-f:4′,3′-p][1]oxa[4,7,10,14]tetraazacycloheptadecine-7-carboxamide], for which the EC50 under setting [1] was 494 nM. The Emax under setting [2] is 155%. Regarding `COc1cccc(CCNC(=O)[C@@H]2CC(=O)N(C)[C@@H](CC(C)C)C(=O)N3CCc4ccccc4[C@H]3C(=O)N[C@H](Cc3ccccc3)COc3ccnc(OC)c3C(=O)N2)c1` (mixture of isomers) [Example 569, (7S,11S,19bRS,22R)-22-benzyl-11-isobutyl-4-methoxy-N-(3-methoxyphenethyl)-10-methyl-5,9,12,20-tetraoxo-5,6,7,8,9,10,11,12,15,19b,20,21,22,23-tetradecahydro-14H-pyrido[3′,4′:16,17][1]oxa[4,7,10,14]tetraazacycloheptadecino[6,7-a]isoquinoline-7-carboxamide], the EC50 under setting [1] is 108 nM. Also, the Emax under setting [2] turned out to be 270%. With `COc1cccc(CCNC(=O)[C@@H]2CC(=O)N(C)[C@@H](CC(C)C)C(=O)N(C)[C@@H](C)C(=O)N[C@H](Cc3ccccc3)COc3ccc4cc(C)oc4c3C(=O)N2)c1` (mixture of isomers) [Example 575, (8R,11RS,14S,18S)-8-benzyl-14-isobutyl-N-(3-methoxyphenethyl)-2,11,12,15-tetramethyl-10,13,16,20-tetraoxo-7,8,9,10,11,12,13,14,15,16,17,18,19,20-tetradecahydrobenzofuro[7,6-p][1]oxa[4,7,10,14]tetraazacycloheptadecine-18-carboxamide], under setting [1], the EC50 worked out at 411 nM. Besides, under setting [2], the Emax was 273%.

For `Cc1cc(CCNC(=O)[C@@H]2CC(=O)N(C)[C@@H](CC(C)C)C(=O)N(C)[C@@H](C)C(=O)N[C@H](Cc3ccccc3)COc3ccc4cc(C)oc4c3C(=O)N2)on1` (mixture of isomers) [Example 576, (8R,11RS,14S,18S)-8-benzyl-14-isobutyl-2,11,12,15-tetramethyl-N-(2-(3-methylisoxazol-5-yl)ethyl)-10,13,16,20-tetraoxo-7,8,9,10,11,12,13,14,15,16,17,18,19,20-tetradecahydrobenzofuro[7,6-p][1]oxa[4,7,10,14]tetraazacycloheptadecine-18-carboxamide], the EC50 under setting [1] was found to be 523 nM. Moreover, the Emax under setting [2] was found to be 268%. The matching figures for `COc1cccc(CCNC(=O)[C@@H]2CC(=O)N(C)[C@@H](CC(C)C)C(=O)N3CCOC[C@H]3C(=O)N[C@H](Cc3ccccc3)COc3ccc4c(C)noc4c3C(=O)N2)c1` (mixture of isomers) [Example 624, (4aRS,7R,17S,21S)-7-benzyl-21-isobutyl-N-(3-methoxyphenethyl)-12,20-dimethyl-5,15,19,22-tetraoxo-1,2,4,4a,5,6,7,8,15,16,17,18,19,20,21,22-hexadecahydroisoxazolo[4′,5′:5,6]benzo[1,2-p][1,4]oxazino[3,4-f][1]oxa[4,7,10,14]tetraazacycloheptadecine-17-carboxamide]: 921 nM and 171%. As for `COc1cc2c(cn1)OC[C@@H](Cc1ccccc1)NC(=O)[C@@H]1CCCCN1C(=O)[C@H](CC(C)C)N(C)C(=O)C[C@@H](C(=O)NCCc1cc(C3CC3)no1)NC2=O` (mixture of isomers) [Example 652, (7S,11S,17aRS,20R)-20-benzyl-N-(2-(3-cyclopropylisoxazol-5-yl)ethyl)-11-isobutyl-3-methoxy-10-methyl-5,9,12,18-tetraoxo-5,6,7,8,9,10,11,12,15,16,17,17a,18,19,20,21-hexadecahydro-14H-dipyrido[2,1-f:4′,3′-p][1]oxa[4,7,10,14]tetraazacycloheptadecine-7-carboxamide], the EC50 under setting [1] worked out at 593 nM. The Emax under setting [2] turned out to be 155%.

Consider `COc1cccc(CCNC(=O)[C@@H]2CC(=O)N(C)[C@@H](CC(C)C)C(=O)N(C)[C@@H](COC(C)(C)C)C(=O)N[C@H](Cc3ccccc3)COc3ccc4ccccc4c3C(=O)N2)c1` (mixture of isomers) [Example 717, (3S,7S,10RS,13R)-13-benzyl-10-(tert-butoxymethyl)-7-isobutyl-N-(3-methoxyphenethyl)-6,9-dimethyl-1,5,8,11-tetraoxo-1,2,3,4,5,6,7,8,9,10,11,12,13,14-tetradecahydronaphtho[1,2-p][1]oxa[4,7,10,14]tetraazacycloheptadecine-3-carboxamide], for which the EC50 under setting [1] amounted to 69 nM. Besides, the Emax under setting [2] is 348%. As for `COc1cccc(CCNC(=O)[C@@H]2CC(=O)N(C)[C@@H](CC(C)C)C(=O)N(C)[C@@H](CO)C(=O)N[C@H](Cc3ccccc3)COc3ccc4ccccc4c3C(=O)N2)c1` (mixture of isomers) [Example 718, (3S,7S,10RS,13R)-13-benzyl-10-(hydroxymethyl)-7-isobutyl-N-(3-methoxyphenethyl)-6,9-dimethyl-1,5,8,11-tetraoxo-1,2,3,4,5,6,7,8,9,10,11,12,13,14-tetradecahydronaphtho[1,2-p][1]oxa[4,7,10,14]tetraazacycloheptadecine-3-carboxamide], the EC50 under setting [1] was 359 nM.

With `COc1cc(CCNC(=O)[C@@H]2CC(=O)N(C)[C@@H](CC(C)C)C(=O)N(C)[C@@H](CC(F)(F)F)C(=O)N[C@H](Cc3ccccc3)COc3ccc4nc(C)oc4c3C(=O)N2)on1` (mixture of isomers) [Example 974, (8R,11RS,14S,18S)-8-benzyl-14-isobutyl-N-(2-(3-methoxyisoxazol-5-yl)ethyl)-2,12,15-trimethyl-10,13,16,20-tetraoxo-11-(2,2,2-trifluoroethyl)-7,8,9,10,11,12,13,14,15,16,17,18,19,20-tetradecahydrooxazolo[4′,5′:5,6]benzo[1,2-p][1]oxa[4,7,10,14]tetraazacycloheptadecine-18-carboxamide], for the setting “U2OS cells, 16h compound incubation, geomean of several measurements”, the EC50 came out at 703 nM. The Emax (in relation to the Emax of the corrector lumacaftor (=100%), U2OS cells, 16h compound incubation, arithmetic mean) was determined as 440%.

By EC50 is commonly meant the concentration giving half of the maximal effect. As usually defined, the Emax is the maximal effect, on the per cent scale that the assay sets.
